These results are taken from ChEMBL document CHEMBL2073835, “Apical uptake of organic cations by human intestinal Caco-2 cells: putative involvement of ASF transporters” (Naunyn Schmiedebergs Arch Pharmacol, 2001).

What is called IC50 is the concentration that inhibits the measured activity by half.

The target in the experiment is T1, Solute carrier family 22 member 3 (Homo sapiens, UniProt O75751).
T1 sequence (O75751 whole entry): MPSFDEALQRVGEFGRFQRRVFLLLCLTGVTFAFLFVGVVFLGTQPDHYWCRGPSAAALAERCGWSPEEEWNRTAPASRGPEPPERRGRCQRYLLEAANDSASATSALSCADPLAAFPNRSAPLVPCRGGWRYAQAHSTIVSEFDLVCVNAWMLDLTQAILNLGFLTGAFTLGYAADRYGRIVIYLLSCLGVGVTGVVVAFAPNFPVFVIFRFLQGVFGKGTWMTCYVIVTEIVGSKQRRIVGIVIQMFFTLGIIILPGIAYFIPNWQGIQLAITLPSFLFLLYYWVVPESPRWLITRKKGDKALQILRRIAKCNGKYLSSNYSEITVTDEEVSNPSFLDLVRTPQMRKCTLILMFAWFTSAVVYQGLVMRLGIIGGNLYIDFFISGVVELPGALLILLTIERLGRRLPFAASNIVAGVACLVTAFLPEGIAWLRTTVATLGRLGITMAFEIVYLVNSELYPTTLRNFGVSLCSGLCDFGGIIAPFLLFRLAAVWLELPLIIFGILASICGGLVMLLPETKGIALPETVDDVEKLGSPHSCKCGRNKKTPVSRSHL
Description: TP_TRANSPORTER: inhibition of MPP+ uptake (MPP+: 0.2 uM) in OCT3-expressing HEK293 cells. The experiment is classed as functional, cell-based.
Regarding `Clc1cccc(Cl)c1N=C1NCCN1` [CLONIDINE], the IC50 was found to be 79.3 µM.

As to `CC[n+]1c(CC2C=C(C)N=C(c3ccccc3)N2C)ccc2ccccc21` (stereo not drawn) [Cyanine-863], the IC50 came to 1.76 µM.

`CC[N+](CC)(CC)CC` [TETRYLAMMONIUM] registered a half-inhibitory concentration (IC50) of 10300 µM.
